Test results: publication PMC6965176, “Targeting Forward and Reverse EphB4/EFNB2 Signaling by a Peptide with Dual Functions” (Scientific Reports, 2020)
Non-standard residues stand in square brackets, D forms with d. No end group written: not given here.

Key:
[1] = system: orthotopic A2780cp20-Luc ovarian tumors; assay: Orthotopic A2780cp20-Luc ovarian cancer model
Description: (A) Schema for in vivo orthotopic A2789cp20-Luc model and treatment. Female nude mice were intraperitoneally inoculated with A2789cp20-Luc tumor cells. Beginning on day 7 after inoculation, each mouse received 10 intraperitoneal injections of BIDEN-AP or CCPM-BIDEN-AP (bold arrows) at a dose 13 mg/kg/injection every other day for a total of 10 doses. Tumor growth was monitored by bioluminescence imaging (IVIS). (B,C) Representative bioluminescence images on day 28 after tumor cell inoculation (B) and corresponding quantification of signal intensity (C) of mice bearing orthotopic A2780cp20-Luc tumors (n = 4). (D,E) Tumor weight (D) and number of tumor nodules (E) per treatment group (n = 8). (F) Images of tumor nodules from each treatment group. Data are expressed as mean ± SD. *p < 0.05, **p < 0.01, ****p < 0.0001 by Student t-test. CTL, untreated controls.
Female athymic nude mice (NCr-nu) were obtained from Harlan Laboratories (Indianapolis, IN) at age 4 to 6 weeks and kept under sterile conditions. For all therapeutic experiments, groups of the mice were inoculated intraperitoneally with A2780cp20-Luc cells (1×10^6 cells/mouse). The mice were treated with BIDEN-AP or CCPM-BIDEN-AP at a dose of 13 mg equivalent drug/kg per injection for a total of 10 doses every other day starting on day 7 after tumor cell inoculation. Untreated mice were used as a control. On day 31, all mice were euthanized and necropsied, and their tumors were harvested. Tumor weight and number and location of tumor nodules were recorded. Tumor tissue was fixed in formalin for paraffin embedding, frozen in optimal cutting temperature medium for frozen slide preparation, or snap-frozen for lysate preparation.
On day 7, day 14, day 21, and day 28 after tumor inoculation, mice received a tail vein injection of D-luciferin (4 mg/kg) and their tumor burden was assessed by luciferase activity using the Xenogen IVIS-200 imaging system (Perkin Elmer, Shelton, CT). The bioluminescence imaging signal generated in mice was quantified using Living Image V.2.11 software and IGOR image analysis software (V.4.02 A; WaveMetrics, Portland, OR). The region of interest was manually selected, and the signal intensity was expressed in terms of the number of photons/s/cm^2.
incubated overnight at 4°C. After washing, the slides were incubated with Alexa488-conjugated goat anti-rabbit secondary antibody for 60 min. Slides were subjected to recombinant terminal
deoxynucleotidyl transferase (rTdT)–mediated dUTP nick-end labeling (TUNEL) by using the
DeadEnd Fluorometric TUNEL System assay kit (Promega) after CD31 staining by immersing
slides in 4% formaldehyde in PBS for 15 min. A 20 µg/mL proteinase K solution (Promega) was
added to each slide (100 µL per slide), and the slides were incubated at room temperature for 8-
10 min. Slides were washed twice with PBS, 100 µL equilibration buffer (Promega) was added to
each, and the slides were again incubated for 5-10 min. The slides were then labeled by adding
50 µL of fluorescein-12-dUTP as a substrate, and the rTdT was added. Each slide was covered
with a plastic coverslip to ensure even distribution of the labeling solution and incubated for 60
min at 37°C in a humidified chamber. The reaction was stopped by immersing slides in 2x SSC
solution (87.7g NaCl, 44.1g sodium citrate, pH 7.0, in 500 mL) for 15 min. After washing with PBS,

EphB4 = biological target: T1, EphB4 (Homo sapiens, UniProt P54760); assay: SPR (BIACore) binding of peptides to immobilized EphB4; conditions: rhEphB4-coated chips, 0.16-20 nM equivalent BIDEN-AP, duplicate, visual inspection; poor fitting to 1:1 or 1:2 models (Fig. 3B)
T1 construct: purchased R&D Systems
T1 sequence (P54760 16-987): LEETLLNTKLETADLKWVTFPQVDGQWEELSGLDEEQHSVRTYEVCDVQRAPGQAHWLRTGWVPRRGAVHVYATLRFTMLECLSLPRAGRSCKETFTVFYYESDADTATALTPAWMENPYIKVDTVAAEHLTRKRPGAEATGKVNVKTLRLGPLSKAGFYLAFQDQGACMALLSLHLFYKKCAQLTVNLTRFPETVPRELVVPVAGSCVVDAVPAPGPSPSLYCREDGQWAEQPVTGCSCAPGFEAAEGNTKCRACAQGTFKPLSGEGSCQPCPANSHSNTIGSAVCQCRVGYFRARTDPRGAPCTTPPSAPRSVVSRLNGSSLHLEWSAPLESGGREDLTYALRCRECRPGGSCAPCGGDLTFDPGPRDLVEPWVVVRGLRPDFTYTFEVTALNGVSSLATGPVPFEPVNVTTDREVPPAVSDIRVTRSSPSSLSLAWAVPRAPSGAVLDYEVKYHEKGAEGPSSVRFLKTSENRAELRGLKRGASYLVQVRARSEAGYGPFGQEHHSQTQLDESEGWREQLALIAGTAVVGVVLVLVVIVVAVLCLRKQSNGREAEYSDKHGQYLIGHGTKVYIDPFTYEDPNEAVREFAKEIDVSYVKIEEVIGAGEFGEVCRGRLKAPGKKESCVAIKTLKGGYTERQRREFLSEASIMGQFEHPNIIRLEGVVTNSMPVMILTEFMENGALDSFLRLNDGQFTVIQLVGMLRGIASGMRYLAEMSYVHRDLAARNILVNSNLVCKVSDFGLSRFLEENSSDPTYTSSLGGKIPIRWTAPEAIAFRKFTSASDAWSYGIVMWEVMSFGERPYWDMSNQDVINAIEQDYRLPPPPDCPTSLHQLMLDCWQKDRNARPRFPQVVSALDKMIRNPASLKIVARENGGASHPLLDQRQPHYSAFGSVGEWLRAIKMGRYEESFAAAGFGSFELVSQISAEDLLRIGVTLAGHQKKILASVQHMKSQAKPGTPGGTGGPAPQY
Description: Surface plasmon resonance (SPR) binding and competition assays.
Immunoblotting, immunoprecipitation, and co-immunoprecipitation.

CCPM-BIDEN-AP: nanoconjugate of BIDEN-AP with core-crosslinked polymeric micelles (CCPM) (TN[dY]LFSPNGPIARAW; also: conjugated to core-crosslinked polymeric micelles (CCPM))
bioluminescence signal intensity of tumors ([1]; day 28 after inoculation, 13 mg/kg/injection i.p. every other day, 10 doses from day 7, n = 4 (Fig. 5A-C)): significantly reduced the bioluminescence signal intensity
metastatic nodules, comparison of the two agents ([1]; day 31, 13 mg/kg/injection i.p., 10 doses (Fig. 5E,F)): reduced metastatic nodules to a greater extent than BIDEN-AP
tumor growth in the peritoneum (tumor weight and number of metastatic nodules) versus controls ([1]; day 31 after inoculation, 13 mg/kg/injection i.p., 10 doses, n = 8 (Fig. 5D)): significantly reduced tumor growth in the peritoneum
apoptotic cell death in CD31+ endothelial vasculature within tumor stroma ([1]; excised A2780cp20 tumors, CD31/TUNEL co-staining, versus untreated control (Fig. 6A-C)): induced apoptotic cell death
angiogenesis in tumors (microvessel density) ([1]; excised A2780cp20 tumors, CD31 staining (Fig. 6A-C)): suppressed angiogenesis in tumors
tumor cell proliferation (Ki67-positive cells) ([1]; excised A2780cp20 tumors, Ki67 IHC (Fig. 6D,E)): significantly reduced tumor cell proliferation
EphB4 and Crk1 phosphorylation in vivo in tumors ([1]; orthotopic A2780cp20 tumors of treated mice, IP/immunoblot (Fig. S7B)): induce EphB4 and Crk1 phosphorylation
binding avidity to immobilized EphB4 (SPR sensorgrams) (EphB4): stronger binding avidity to EphB4 than the unconjugated BIDEN-AP peptide
